Source: patent US20080039432A1, “Active Compound Combinations Having Insecticidal Properties” (priority 2004, published 2008)
Where two headings read alike, the source gives them in different places.

How the values were obtained:
Format in all cases: in vivo
Myzus persicae = tested on: Myzus persicae
Protocol: (§1) To produce a suitable preparation of active compound, 1 part by weight of active compound is mixed with the stated amounts of solvent and emulsifier, and the concentrate is diluted with emulsifier-containing water to the desired concentration.
Cabbage leaves (Brassica oleracea) which are heavily infested by the green peach aphid (Myzus persicae) are treated by being dipped into the preparation of active compound of the desired concentration.
After the desired period of time, the kill in % is determiined. 100% means that all aphids have been killed; 0% means that none of the aphids have been killed. The determined kill rates are entered into Colby's formula.

[1] = tested on: Phaedon cochleariae larvae; assay: Phaedon cochleariae larvae test (cabbage leaf dip)
Protocol: Phaedon Cochleariae Larvae Test
as §1
Cabbage leaves (Brassica oleracea) are treated by being dipped into the active compound preparation of the desired concentration and are populated with larvae of the mustard beetle (Phaedon cochleariae) while the leaves are still moist.
After the desired period of time, the kill in % is determined. 100% means that all larvae have been killed; 0% means that none of the larvae have been killed. The determined kill rates are entered into Colby's formula.

[2] = tested on: Plutella xylostella, resistant strain; details: Table A, 20 ppm, caterpillars on dipped cabbage leaves
Protocol: Plutella Xylostella Test, Resistant Strain
as §1
Cabbage leaves (Brassica oleracea) are treated by being dipped into the active compound preparation of the desired concentration and are populated with caterpillars of the diamondback moth (Plutella xylostella, resistant strain) while the leaves are still moist.
After the desired period of time, the kill in % is determined. 100% means that all caterpillars have been killed; 0% means that none of the caterpillars have been killed. The determined kill rates are entered into Colby's formula.

`CNC(=O)O/N=C/C(C)(C)SC` [aldicarb] was tested, and the “Kill in % after 1 d” value (Myzus persicae; Table B1, 4 ppm) was 45%, the “Kill in % after 1 d” value ([1]; Table C1, 20 ppm) was 25% and the “Kill in % after 1 d” value ([1]; Table C2, 20 ppm) was 25%.

In the case of `CN/C(=N/[N+](=O)[O-])NCc1cnc(Cl)s1` [clothianidin], the “Kill in % after 6 days” value [2] is reported as 0%, the “Kill in % after 1 d” value (Myzus persicae; Table B1, 0.80 ppm) is reported as 50% and the “Kill in % after 1 d” value ([1]; Table C2, 4 ppm) is reported as 65%.

`O=[N+]([O-])N=C1NCCN1Cc1ccc(Cl)nc1` [imidacloprid] was tested, and the “Kill in % after 1 d” value (Myzus persicae; Table B1, 0.16 ppm) was 20%, the “Kill in % after 1 d” value (Myzus persicae; Table B2, 0.16 ppm) was 10% and the “Kill in % after 1 d” value ([1]; Table C1, 4 ppm) was 5%. The “Kill in % after 1 d” value ([1]; Table C2, 4 ppm) was 20%.

ethoprophos was tested, and the “Kill in % after 6 days” value [2] was 5% and the “Kill in % after 1 d” value (Myzus persicae; Table B2, 20 ppm) was 0%.
